One compound from paper PMC7226483, “Exploring the Synergy between PARP and CHK1 Inhibition in Matched BRCA2 Mutant and Corrected Cells” (Cancers, 2020) can be followed below.

The target of this assay is T1, CHK1 (Cricetulus griseus, UniProt G3I7I8).
T1 construct: gene Chek1
T1 sequence (G3I7I8 1-476): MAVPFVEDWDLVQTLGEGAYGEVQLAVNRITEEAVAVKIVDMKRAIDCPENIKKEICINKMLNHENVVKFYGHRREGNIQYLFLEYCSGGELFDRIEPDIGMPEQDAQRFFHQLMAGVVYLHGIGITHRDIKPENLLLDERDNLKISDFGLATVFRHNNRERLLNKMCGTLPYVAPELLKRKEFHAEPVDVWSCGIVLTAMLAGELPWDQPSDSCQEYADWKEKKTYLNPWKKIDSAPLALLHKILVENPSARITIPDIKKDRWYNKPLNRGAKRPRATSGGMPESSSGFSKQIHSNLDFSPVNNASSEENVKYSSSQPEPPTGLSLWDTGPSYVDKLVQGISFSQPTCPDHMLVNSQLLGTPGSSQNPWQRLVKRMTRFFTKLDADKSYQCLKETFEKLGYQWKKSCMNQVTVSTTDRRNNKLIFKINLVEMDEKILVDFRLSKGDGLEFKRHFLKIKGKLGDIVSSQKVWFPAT
As to the kind of experiment: Western blot of CHK1 S296 autophosphorylation in rucaparib-treated V-C8 and V-C8.B2 cells. In kind it is cell-based. The settings on record: read-out: % inhibition at 50 nM. In general terms: In western blotting, separated proteins are transferred to a membrane and probed.

Regarding `Cn1cc(-c2[nH]c3cc(NC(=O)[C@H](N)C4CCCCC4)cc4c3c2C=NNC4=O)cn1` [PF-477736], the inhibition (in general, the percentage by which the read-out fell short of the control) at 0.05 µM came to 91.4%.
